Results from the supplement of paper PMC4862054.

Experiments:
Test in all cases: normalised viability (% of control), CellTiter-Blue; higher = more viable cells (about 100 = DMSO control)
Settings in all cases: incubation time: 72 h
MDA-MB-453 [1] = test system: MDA-MB-453
Description: (§1)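 DSRT, CellTiter-Blue viability, 72 h incubation. Signal is normalised to DMSO and benzethonium chloride controls. Value is the normalised response at dose 7.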

CAL-148 [2] = test system: CAL-148
Description: as §1

CAL-85-1 [3] = test system: CAL-85-1
Description: as §1

DU-4475 [4] = test system: DU-4475
Description: as §1

HDQ-P1 [5] = test system: HDQ-P1
Description: as §1

CAL-51 [6] = test system: CAL-51
Description: as §1

MDA-MB-453 [7] = test system: MDA-MB-453; remark: listed apart in the source
Description: (§2)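 DSRT, CellTiter-Blue viability, 72 h incubation. Signal is normalised to DMSO and benzethonium chloride controls. Value is the normalised response at dose 9.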

CAL-148 [8] = test system: CAL-148; remark: listed apart in the source
Description: as §2

CAL-85-1 [9] = test system: CAL-85-1; remark: listed apart in the source
Description: as §2

DU-4475 [10] = test system: DU-4475; remark: listed apart in the source
Description: as §2

HDQ-P1 [11] = test system: HDQ-P1; remark: listed apart in the source
Description: as §2

CAL-51 [12] = test system: CAL-51; remark: listed apart in the source
Description: as §2

SK-BR-3 = test system: SK-BR-3
How it was run: (§3)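 Plates were quality-checked by Z'-factor and normalised to vehicle (100) and a positive kill control (0). The underlying assay incubated breast cancer cell lines for 72 h on 384-well plates with compound, then added 2.5 µl CellTiter-Blue for 2 h at 37 °C and read at 560/590 nm. The value is normalised viability at a single listed concentration of the series.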

HCC1937 = test system: HCC1937
How it was run: as §3

HCC1599 = test system: HCC1599
How it was run: as §3

MDA-MB-468 = test system: MDA-MB-468
How it was run: as §3

MDA-MB-453 [13] = test system: MDA-MB-453; remark: listed apart in the source
How it was run: as §3

MDA-MB-231 = test system: MDA-MB-231
How it was run: as §3

CAL-148 [14] = test system: CAL-148; remark: listed apart in the source
How it was run: as §3

CAL-85-1 [15] = test system: CAL-85-1; remark: listed apart in the source
How it was run: as §3

DU-4475 [16] = test system: DU-4475; remark: listed apart in the source
How it was run: as §3

HCC1143 = test system: HCC1143
How it was run: as §3

HDQ-P1 [17] = test system: HDQ-P1; remark: listed apart in the source
How it was run: as §3

Hs578T = test system: Hs578T
How it was run: as §3

CAL-120 = test system: CAL-120
How it was run: as §3

MFM-223 = test system: MFM-223
How it was run: as §3

BT-549 = test system: BT-549
How it was run: as §3

CAL-51 [18] = test system: CAL-51; remark: listed apart in the source
How it was run: as §3

BT-474 = test system: BT-474
How it was run: as §3

CAL-148 [19] = test system: CAL-148; remark: listed apart in the source
Description: (§4)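 DSRT, CellTiter-Blue viability, 72 h incubation. Signal is normalised to DMSO and benzethonium chloride controls. Value is the normalised response at dose 8.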

CAL-85-1 [20] = test system: CAL-85-1; remark: listed apart in the source
Description: as §4

DU-4475 [21] = test system: DU-4475; remark: listed apart in the source
Description: as §4

`CC(C)(C#N)c1cc(Cn2cncn2)cc(C(C)(C)C#N)c1` [Anastrozole] was tested, and the normalised viability (MDA-MB-453 [1]; 1000 nM) was 105%, the normalised viability (CAL-148 [2]; 1000 nM) was 90.4% and the normalised viability (CAL-85-1 [3]; 1000 nM) was 90.8%. It also gave a normalised viability (DU-4475 [4]; 1000 nM) of 91.3%, a normalised viability (HDQ-P1 [5]; 1000 nM) of 84.2% and a normalised viability (CAL-51 [6]; 1000 nM) of 93.9%. For the same compound, the normalised viability (MDA-MB-453 [7]; 10000 nM) was 79.8%, the normalised viability (CAL-148 [8]; 10000 nM) was 94.2% and the normalised viability (CAL-85-1 [9]; 10000 nM) was 93.9%. It also gave a normalised viability (DU-4475 [10]; 10000 nM) of 112%, a normalised viability (HDQ-P1 [11]; 10000 nM) of 98.6% and a normalised viability (CAL-51 [12]; 10000 nM) of 104%. For the same compound, the normalised viability (SK-BR-3; 1000 nM) was 98.7%, the normalised viability (HCC1937; 1000 nM) was 95.4% and the normalised viability (HCC1599; 1000 nM) was 88.3%. The normalised viability (MDA-MB-468; 1000 nM) was 101%, the normalised viability (MDA-MB-453 [13]; 30 nM) was 91% and the normalised viability (MDA-MB-231; 1000 nM) was 80.4%. The normalised viability (CAL-148 [14]; 30 nM) was 96.8%, the normalised viability (CAL-85-1 [15]; 30 nM) was 86.5% and the normalised viability (DU-4475 [16]; 30 nM) was 94.2%. The normalised viability (HCC1143; 1000 nM) was 83.5%, the normalised viability (HDQ-P1 [17]; 30 nM) was 89.2% and the normalised viability (Hs578T; 1000 nM) was 95.7%. It also gave a normalised viability (CAL-120; 1000 nM) of 89.5%, a normalised viability (MFM-223; 1000 nM) of 90.4% and a normalised viability (BT-549; 1000 nM) of 99.1%. It also gave a normalised viability (CAL-51 [18]; 30 nM) of 106%, a normalised viability (BT-474; 1000 nM) of 101% and a normalised viability (CAL-148 [19]; 3000 nM) of 87.2%. The normalised viability (CAL-85-1 [20]; 3000 nM) was 82.8% and the normalised viability (DU-4475 [21]; 3000 nM) was 96.5%.
Work on `O=C1NC(=O)[C@@H](c2cn3c4c(cccc24)CCC3)[C@@H]1c1c[nH]c2ccccc12` [Tivantinib] yielded a normalised viability (MDA-MB-453 [1]; 100 nM) of 78.1%, a normalised viability (CAL-148 [2]; 100 nM) of 112% and a normalised viability (CAL-85-1 [3]; 100 nM) of 77.2%. The normalised viability (DU-4475 [4]; 100 nM) was 109%, the normalised viability (HDQ-P1 [5]; 100 nM) was 106% and the normalised viability (CAL-51 [6]; 100 nM) was 104%. The normalised viability (MDA-MB-453 [7]; 1000 nM) was 31%, the normalised viability (CAL-148 [8]; 1000 nM) was 30.5% and the normalised viability (CAL-85-1 [9]; 1000 nM) was 33.9%. The normalised viability (DU-4475 [10]; 1000 nM) was 36.9%, the normalised viability (HDQ-P1 [11]; 1000 nM) was 53% and the normalised viability (CAL-51 [12]; 1000 nM) was 21.1%. It also gave a normalised viability (SK-BR-3; 100 nM) of 99.9%, a normalised viability (HCC1937; 100 nM) of 64.6% and a normalised viability (HCC1599; 100 nM) of 95.7%. The normalised viability (MDA-MB-468; 100 nM) was 103%, the normalised viability (MDA-MB-453 [13]; 3 nM) was 108% and the normalised viability (MDA-MB-231; 100 nM) was 105%. It also gave a normalised viability (CAL-148 [14]; 3 nM) of 93%, a normalised viability (CAL-85-1 [15]; 3 nM) of 95.7% and a normalised viability (DU-4475 [16]; 3 nM) of 89.2%. For the same compound, the normalised viability (HCC1143; 100 nM) was 93%, the normalised viability (HDQ-P1 [17]; 3 nM) was 120% and the normalised viability (Hs578T; 100 nM) was 114%. It also gave a normalised viability (CAL-120; 100 nM) of 79.8%, a normalised viability (MFM-223; 100 nM) of 87.2% and a normalised viability (BT-549; 100 nM) of 96.5%. The normalised viability (CAL-51 [18]; 3 nM) was 104%, the normalised viability (BT-474; 100 nM) was 106% and the normalised viability (CAL-148 [19]; 300 nM) was 97.9%. For the same compound, the normalised viability (CAL-85-1 [20]; 300 nM) was 68.8% and the normalised viability (DU-4475 [21]; 300 nM) was 102%.
For `CN(C)CCN1C(=O)c2cccc3cc(N)cc(c23)C1=O` [Amonafide], the normalised viability (MDA-MB-453 [1]; 1000 nM) was 81.7%, the normalised viability (CAL-148 [2]; 1000 nM) was 74.5% and the normalised viability (CAL-85-1 [3]; 1000 nM) was 84%. For the same compound, the normalised viability (DU-4475 [4]; 1000 nM) was 86.8%, the normalised viability (HDQ-P1 [5]; 1000 nM) was 93.8% and the normalised viability (CAL-51 [6]; 1000 nM) was 99.1%. For the same compound, the normalised viability (MDA-MB-453 [7]; 10000 nM) was 20.4%, the normalised viability (CAL-148 [8]; 10000 nM) was 8.2% and the normalised viability (CAL-85-1 [9]; 10000 nM) was 27.6%. It also gave a normalised viability (DU-4475 [10]; 10000 nM) of 1.19%, a normalised viability (HDQ-P1 [11]; 10000 nM) of 45.5% and a normalised viability (CAL-51 [12]; 10000 nM) of 6.12%. For the same compound, the normalised viability (SK-BR-3; 1000 nM) was 98.7%, the normalised viability (HCC1937; 1000 nM) was 69.2% and the normalised viability (HCC1599; 1000 nM) was 101%. For the same compound, the normalised viability (MDA-MB-468; 1000 nM) was 106%, the normalised viability (MDA-MB-453 [13]; 30 nM) was 85.7% and the normalised viability (MDA-MB-231; 1000 nM) was 67.8%. It also gave a normalised viability (CAL-148 [14]; 30 nM) of 85.8%, a normalised viability (CAL-85-1 [15]; 30 nM) of 79.8% and a normalised viability (DU-4475 [16]; 30 nM) of 83.2%. The normalised viability (HCC1143; 1000 nM) was 86.3%, the normalised viability (HDQ-P1 [17]; 30 nM) was 104% and the normalised viability (Hs578T; 1000 nM) was 115%. It also gave a normalised viability (CAL-120; 1000 nM) of 78.7%, a normalised viability (MFM-223; 1000 nM) of 99.3% and a normalised viability (BT-549; 1000 nM) of 102%. For the same compound, the normalised viability (CAL-51 [18]; 30 nM) was 102%, the normalised viability (BT-474; 1000 nM) was 108% and the normalised viability (CAL-148 [19]; 3000 nM) was 32%. It also gave a normalised viability (CAL-85-1 [20]; 3000 nM) of 61.9% and a normalised viability (DU-4475 [21]; 3000 nM) of 57.9%.
